Assay results taken from patent publication US6653306B1, “Epoxy-steroidal aldosterone antagonist and angiotensin II antagonist combination therapy” (G.D. Searle & Co., priority 1995, dated 2003).
Where “and” joins values, the source holds several entries; their conditions need not be identical. Equal entries are not always repeated.

How the values were obtained:
[1] = target: angiotensin II AT1 receptor; experiment: Assay A: Angiotensin II binding activity (125I-AII displacement, rat uterine membrane preparation)
[2] = system: rabbit aortic rings; experiment: Assay B: In vitro vascular smooth muscle response for AII (antagonist activity, pA2); assay type: cell-based; settings: in vitro vascular smooth muscle response, two values per cell separated by / are separate determinations; for Kb: Oryctolagus cuniculus, read-out: Assay B pA2 (converted)
Experimental: Assay B: In Vitro Vascular Smooth Muscle-response for AII
The compounds of the invention were tested for antagonist activity in rabbit aortic rings. Male New Zealand white rabbits (2-2.5 kg) were sacrificed using an overdose of pentobarbital and exsanguinated via the carotid arteries. The thoracic aorta was removed, cleaned of adherent fat and connective tissue and then cut into 3-mm ring segments. The endothelium was removed from the rings by gently sliding a rolled-up piece of filter paper into the vessel lumen. The rings were then mounted in a water-jacketed tissue bath, maintained at 37° C., between moveable and fixed ends of a stainless steel wire with the moveable end attached to an FT03 Grass transducer coupled to a Model 7D Grass Polygraph for recording isometric force responses. The bath was filled with 20 ml of oxygenated (95% oxygen/5% carbon dioxide) Krebs solution of the following composition (mM): 130 NaCl, […], 15 KCl, 1.2 NaH2PO4, 1.2 MgSO4, 2.5 CaCl2, and 11.4 glucose. The preparations were equilibrated for one hour before approximately one gram of passive tension was placed on the rings. Angiotensin II concentration-response curves were then recorded (3×10^−10 to 1×10^−5 M). Each concentration of AII was allowed to elicit its maximal contraction, and then AII was washed out repeatedly for 30 minutes before rechallenging with a higher concentration of AII. Aorta rings were exposed to the test antagonist at […] for 5 minutes before challenging with AII. Adjacent segments of the same aorta ring were used for all concentration-response curves in the presence or absence of the test antagonist. The effectiveness of the test compound was expressed in terms of pA2 values and were calculated according to H. O. Schild [Br. J. Pharmacol, Chemother., 2,189-206 (1947)]. The pA2 value is the concentration of the antagonist which increases the EC50 value for AII by a factor of two. Each test antagonist was evaluated in aorta rings from two rabbits.

[3] = system: pressor response to AII; experiment: Assay C: In vivo intragastric pressor assay response for AII antagonists; set-up: species or system rat; settings: intragastric, or intraduodenal for examples listed; for Assay C Inhibition: dose cell empty (dose not given)
In short: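 Conscious male Sprague-Dawley rats with arterial and venous catheters received 30 ng/kg i.v. angiotensin II boluses before and at 30–180 min after gavage of compound (standard 3 mg/kg in 0.5% methylcellulose). Pressor rise in mmHg measured; percent inhibition calculated versus averaged control response at each time point.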

[4] = Rattus norvegicus, dose 3 mg/kg

IC50 [1] [nM] | Compound | Kb [2] [nM] | Assay C Inhibition [3] [%] | inhibition at 100 mg/kg ([3]; Rattus norvegicus, dose 100 mg/kg) [%] | Assay C Duration ([3]; dose 100 mg/kg) [min] | inhibition at 30 mg/kg ([3]; Rattus norvegicus, dose 30 mg/kg) [%] | Assay C Duration ([3]; dose 30 mg/kg) [min] | inhibition at 3 mg/kg [3, 4] [%] | Assay C Duration ([3]; dose 3 mg/kg) [min] | Assay B pA2 [2]
101 | CCCCc1nn(CCCC)c(=O)n1Cc1ccc(-c2ccccc2C(=O)O)cc1 [Compound 78] | 100 | 93 | – | – | – | – | – | – | –
18 | CCCCc1nn(CCCc2ccccc2)c(=O)n1Cc1ccc(-c2ccccc2-c2nn[nH]n2)cc1 [Compound 81] | 10 | 40 | – | – | – | – | – | – | –
3.6 | CCCCc1nn(CC(O)c2ccccc2)c(=O)n1Cc1ccc(-c2ccccc2-c2nn[nH]n2)cc1 (centres unmarked) [Compound 83] | 5.01 | 15 | – | – | – | – | – | – | –
16 | CCCCc1nn(CC(=O)OC(C)(C)C)c(=O)n1Cc1ccc(-c2ccccc2-c2nn[nH]n2)cc1 [Compound 84] | 79.4 | 20 | – | – | – | – | – | – | –
30 | CCCCc1nn(CC(OCC(=O)O)c2ccccc2)c(=O)n1Cc1ccc(-c2ccccc2-c2nn[nH]n2)cc1 (centres unmarked) [Compound 91] | 2.51 | 40 | – | – | – | – | – | – | –
720 | CCCCc1nc2cnncc2n1Cc1ccc(-c2ccccc2C(=O)O)cc1 [Compound 108] | 5010 | – | 45 | 90 | – | – | – | – | –
250 | CCCCc1nc2c(O)nnc(O)c2n1Cc1ccc(-c2ccccc2C(=O)O)cc1 [Compound 109] | 50.1 | – | – | – | 50 | 30 | – | – | –
5.8 | CCCCc1nc(Cl)c(Cl)n1Cc1ccc(-n2cccc2C(=O)O)cc1 [Compound 147] | 2510 | – | – | – | – | – | 74 | 5 to 10 | –

The remaining lines, values behind:

Compound | IC50 [1] [nM] | Kb [2] [nM] | Assay C Inhibition [3] [%] | inhibition at 100 mg/kg ([3]; Rattus norvegicus, dose 100 mg/kg) [%] | Assay C Duration ([3]; dose 100 mg/kg) [min] | inhibition at 30 mg/kg ([3]; Rattus norvegicus, dose 30 mg/kg) [%] | Assay C Duration ([3]; dose 30 mg/kg) [min] | inhibition at 3 mg/kg [3, 4] [%] | Assay C Duration ([3]; dose 3 mg/kg) [min] | Assay B pA2 [2]
CCCCc1cn(CCc2ccccc2)c(=O)n1Cc1ccc(-c2ccccc2-c2nnn[nH]2)cc1 [Compound 133] | 10 | 2 | – | – | – | – | – | 20 | 180 | –
CCCCc1cn(CCc2cccs2)c(=O)n1Cc1ccc(-c2ccccc2-c2nnn[nH]2)cc1 [Compound 134] | 22 | 0.501 | – | – | – | – | – | 35 | 180 | –
CCCCc1cn(-c2ccccc2Cl)c(=O)n1Cc1ccc(-c2ccccc2-c2nnn[nH]2)cc1 [Compound 135] | 16 | 3.16 | – | – | – | – | – | 35 | >180 | –
CCCCc1nc(CCCC)n(Cc2ccc(-n3c(Cl)cc(Cl)c3-c3nnn[nH]3)cc2)n1 [Compound 143] | 0.052 | 20 | 85 | – | – | – | – | – | – | –
CCCCc1nc(Cc2ccc(-c3ccccc3-c3nnn[nH]3)nc2)n(CCCC)n1 [Compound 150] | 14 | 9.33 | – | – | – | – | – | 25 | >180 | –
CCCCn1nc(CCC)nc1Cc1ccc(-c2ccccc2-c2nnn[nH]2)nc1 [Compound 152] | 150 | 34.7 | – | – | – | – | – | 10 | 140 | –
CCCCn1nc(-c2ccccc2Cl)nc1Cc1ccc(-c2ccccc2-c2nnn[nH]2)nc1 [Compound 158] | 54 | 5.89 | – | – | – | – | – | 30 | >180 | –
CCCn1nc(C(F)(F)CCC)nc1Cc1ccc(-c2ccccc2-c2nnn[nH]2)nc1 [Compound 169] | 150 | 16.6 | – | – | – | – | – | 15 | 180 | –
CCCCn1nc(C(OCC)OCC)nc1Cc1ccc(-c2ccccc2-c2nnn[nH]2)nc1 [Compound 176] | 9.8 | 20.4 | – | – | – | – | – | 10 | 150 | –
CCCCc1nc(C(F)(F)CCC)nn1Cc1ccc(-c2ccccc2-c2nnn[nH]2)nc1 [Compound 247] | 9.4 | 5.5 | – | – | – | – | – | 20 | 180 | –
CCCCc1nc(C(F)(F)CCC)n(Cc2ccc(-c3ccccc3-c3nnn[nH]3)nc2)n1 [Compound 248] | 20 | 20.9 | – | – | – | – | – | 10 | – | –
CCCCc1nc(C(=O)N(C)C(C)(C)C)nn1Cc1ccc(-c2ccccc2-c2nnn[nH]2)nc1 [Compound 255] | 12 | 24.5 | – | – | – | – | – | 20 | >180 | –
CCCCc1cn(-c2c(OC)cccc2OC)c(=O)n1Cc1ccc(-c2ccccc2-c2nnn[nH]2)cc1 [Compound 273] | 9.8 | – | – | – | – | – | – | 25 | >180 | 8.53 and 8.61
CCCCc1cn(-c2c(C)cccc2Cl)c(=O)n1Cc1ccc(-c2ccccc2-c2nnn[nH]2)cc1 [Compound 274] | 13 | – | – | – | – | – | – | 35 | >180 | 9.06 and 8.85
CCCCc1cn(-c2c(C)cccc2C)c(=O)n1Cc1ccc(-c2ccccc2-c2nnn[nH]2)cc1 [Compound 275] | 6.3 | 0.851 | – | – | – | – | – | 40 | >180 | –
CCCCc1cn(-c2c(CC)cccc2CC)c(=O)n1Cc1ccc(-c2ccccc2-c2nnn[nH]2)cc1 [Compound 276] | 33 | – | – | – | – | – | – | < 20 | – | 8.71 and 8.64
CCCCc1cn(-c2c(C)cc(C)cc2C)c(=O)n1Cc1ccc(-c2ccccc2-c2nnn[nH]2)cc1 [Compound 278] | 30 | – | – | – | – | – | – | 50 | >180 | 8.49 and 8.51
